Measured values reported in patent US20250346642A1, “NEW SPLICE VARIANT ISOFORM OF VEGF” (CENTRE NATIONAL DE LA RECHERCHE SCIENTIFIQUE (CNRS), priority 2020, published 2025).
Where two headings read alike, the source gives them in different places.

Experiments:
ACHN cells = assay: RT-qPCR of VEGF and VEGF222/NF in ACHN cells transduced with shRNA; type: cell-based
Description: (§1) For these constructs, the C-terminal V5-tag was not in frame. To generate lentiviral shRNA plasmids, pLKO.1-TRC cloning vector, a kind gift from David Roots, has been used. pLKO.1-TRC contains a 1.9 kb stuffer released by Agel and EcoRI digestion. shRNA oligos were annealed and ligated into the Agel and EcoRI sites in place of the stuffer. The following shRNA sequences were used: shScramble: 5′-[…]-3′ (SEQ ID NO: 26); shVEGF #1: 5′-[…]-3′ (SEQ ID NO: 27) shVEGF #2: 5′-[…]-3′ (SEQ ID NO: 28); shVEGFNF #1: 5′-[…]-3′ (SEQ ID NO: 29); shVEGFNF #2: 5′-[…]-3′(SEQ ID NO: 30); shNRP1: 5′-[…]-3′(SE ID NO: 31); shNRP2: 5′-[…]-3 (SEQ ID NO: 32)′. All plasmids were verified by Sanger sequencing (Eurofins Genomics).
(§2) Lentivirus were produced by triple transfection of HEK-293T cells with a lentiviral transfer vector (pLenti6.3 for overexpression experiments and pLKO.1 for shRNA experiments), and the packaging plasmids psPAX2 and pMD2.G at a 0.3:0.3:0.1 ratio. Transfection was performed using JetPEI® reagent as recommended by the manufacturer Polyplus transfection. The viral supernatant was collected 48 hours following transfection, filtered through a 0.22 μm filter, and added to target cells.
(§3) RT-PCR and RT-qPCR analyses were carried out on human tissue mRNA (BIOCHAIN®) and on cancer cell lines. mRNAs were prepared with a Nucleospin RNA kit (Macherey-Nagel), and cDNA synthesis was performed with a Maxima First Strand CDNA Synthesis Kit for RT-qPCR, with dsDNase (Fischer scientific), according to the manufacturers' instructions.
(§4) PCR analysis was performed on Biometra thermal cycler with PrimeSTAR GXL DNA polymerase (Takara Bio). Quantitative PCR analysis was performed on Applied Biosystems StepOnePlus™ System with TB Green® premix Ex Taq™ (Tli RNase H Plus) (Takara Bio) reagents. All samples were assayed in triplicate. Relative expression levels were determined with the dCt method and normalized to the 36B4 reference gene.

786-O cells = assay: RT-qPCR of VEGF and VEGF222/NF in 786-O cells transduced with shRNA; type: cell-based
Description: as §1, §2, §3, §4

metastatic ccRCC = assay: PFS and OS of metastatic (M1) ccRCC patients treated by sunitinib, grouped by plasma VEGF222/NF; type: in vivo, human
Protocol: Informed consent was obtained from all individual participants included in the study. All patients gave written consent for the use of tumor and blood samples for research. This study was conducted in accordance with the Declaration of Helsinki. Primary tumor samples of 93 non-metastatic (M0) ccRCC patients were obtained from the Rennes and Bordeaux University Hospitals (UroCCR group, NCT03293563). For metastatic patients, the population of the study included 47 ccRCC patients from the prospective SUVEGIL (NCT00943839) and TORAVA (NCT00619268) trials and from a retrospective cohort from Pavia (Italy).
Informed consent was obtained from all individual participants included in the study. All patients gave written consent for the use of tumor and blood samples for research. This study was conducted in accordance with the Declaration of Helsinki. Primary tumor samples of 93 non-metastatic (M0) ccRCC patients were obtained from the Rennes and Bordeaux University Hospitals (UroCCR group, NCT03293563). For metastatic patients, the population of the study included 47 ccRCC patients from the prospective SUVEGIL (NCT00943839) and TORAVA (NCT00619268) trials and from a retrospective cohort from Pavia (Italy). Metastatic patients received oral sunitinib (50 mg per day) once a day for 4 weeks (on days 1 to 28), followed by 2 weeks of treatment interruption. Sunitinib was continued in the absence of disease progression or unacceptable toxicity. Blood samples were collected before the beginning of the treatment (TO). Blood samples were centrifuged (10 000 g for 10 min) and the plasmas were collected and conserved at −80° C. Plasmatic levels of VEGF and VEGF222/NF were determined by ELISA as described in the ELISA method details section. PFS and OS were calculated from patient subgroups with VEGFA or VEGF222/NF plasmatic levels that were less or greater than the third quartile value.
Statistical analysis was carried out using GraphPad Prism 8. Data were expressed as mean±SEM and were compared using an unpaired Mann-Whitney test for intergroup analysis. For patients: The Student's t-test was used to compare continuous variables and chi-square test, or Fisher's exact test (when the conditions for use of the χ2-test were not fulfilled), were used for categorical variables. DFS was defined as the time from surgery to the appearance of metastasis. PFS was defined as the time between surgery and progression, or death from any cause, censoring live patients and progression free at the last follow-up. OS was defined as the time between surgery and the date of death from any cause, censoring those alive at the last follow-up. The Kaplan-Meier method was used to produce survival curves and analyses of censored data were performed using Cox models. Significance was defined as P<0.05.
The detrimental effects of VEGF222/NF in immunodeficient mice and zebrafish models prompted us to analyze the prognostic impact of its plasmatic levels in comparison to plasmatic VEGF level on a cohort of 47 metastatic (M1) ccRCC patients treated by sunitinib. The third quartile was used as the cut-off to determine patients' groups, respectively 4500 […] for VEGF and VEGF222/NF. […] However, patients with high plasmatic levels of both VEGF222/NF and VEGF had the shortest PFS (FIG. 14). […] Whereas VEGF was not associated with a significant effect on OS, high expression of VEGF222/NF WAS synonymous of a shorter overall survival (OS) in M1 patients (FIGS. 13C,D).

VEGFR2 = target: T1, VEGFR2 (UniProt P35968 20-764, limits assumed); assay: saturation binding experiment
T1 construct: also called VEGFR2/KDR
T1 sequence (P35968 20-764 limits assumed): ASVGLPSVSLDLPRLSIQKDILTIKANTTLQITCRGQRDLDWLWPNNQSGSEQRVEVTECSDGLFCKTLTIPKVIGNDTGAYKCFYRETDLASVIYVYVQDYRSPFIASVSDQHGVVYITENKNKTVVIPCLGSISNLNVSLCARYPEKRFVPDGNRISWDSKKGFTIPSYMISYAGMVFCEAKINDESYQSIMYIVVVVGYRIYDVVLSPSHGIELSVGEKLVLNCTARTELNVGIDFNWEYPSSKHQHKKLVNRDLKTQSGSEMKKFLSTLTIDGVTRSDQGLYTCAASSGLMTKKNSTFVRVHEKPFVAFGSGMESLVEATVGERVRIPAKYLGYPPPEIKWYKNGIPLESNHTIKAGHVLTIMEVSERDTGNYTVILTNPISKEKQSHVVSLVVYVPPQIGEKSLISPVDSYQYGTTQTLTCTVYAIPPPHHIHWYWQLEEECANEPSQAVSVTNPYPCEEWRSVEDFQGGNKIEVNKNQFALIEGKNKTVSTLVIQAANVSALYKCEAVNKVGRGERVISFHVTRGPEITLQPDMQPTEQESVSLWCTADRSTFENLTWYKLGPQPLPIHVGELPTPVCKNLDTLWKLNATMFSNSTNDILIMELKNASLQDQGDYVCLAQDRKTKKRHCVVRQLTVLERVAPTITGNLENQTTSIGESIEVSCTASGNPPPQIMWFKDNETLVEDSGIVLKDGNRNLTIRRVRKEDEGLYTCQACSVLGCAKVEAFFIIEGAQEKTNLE

VEGFR1 = target: T2, VEGFR1 (UniProt P17948 27-756, limits assumed); assay: saturation binding experiment
T2 construct: also called VEGFR1/Flt1
T2 sequence (P17948 27-756 limits assumed): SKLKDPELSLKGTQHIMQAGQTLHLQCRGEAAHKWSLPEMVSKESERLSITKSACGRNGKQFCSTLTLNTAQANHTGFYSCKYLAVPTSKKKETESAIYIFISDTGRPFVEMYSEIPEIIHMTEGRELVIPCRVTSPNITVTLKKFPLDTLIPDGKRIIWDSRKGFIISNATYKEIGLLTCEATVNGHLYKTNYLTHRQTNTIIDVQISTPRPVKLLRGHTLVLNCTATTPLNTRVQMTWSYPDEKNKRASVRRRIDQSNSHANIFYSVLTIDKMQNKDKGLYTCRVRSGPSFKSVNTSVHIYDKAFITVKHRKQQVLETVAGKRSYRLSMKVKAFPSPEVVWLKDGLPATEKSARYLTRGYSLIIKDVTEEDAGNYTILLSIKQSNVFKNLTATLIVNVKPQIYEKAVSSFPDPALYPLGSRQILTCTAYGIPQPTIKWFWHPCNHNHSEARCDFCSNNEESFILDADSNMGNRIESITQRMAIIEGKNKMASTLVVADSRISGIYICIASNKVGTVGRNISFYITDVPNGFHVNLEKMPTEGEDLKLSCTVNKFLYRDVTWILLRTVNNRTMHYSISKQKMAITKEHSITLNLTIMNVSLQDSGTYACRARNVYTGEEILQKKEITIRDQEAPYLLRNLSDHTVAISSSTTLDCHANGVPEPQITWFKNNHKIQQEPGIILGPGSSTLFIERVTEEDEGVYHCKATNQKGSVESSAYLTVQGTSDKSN

VEGFR3 = target: T3, VEGFR3 (UniProt P35916 25-776, limits assumed); assay: saturation binding experiment
T3 sequence (looked up): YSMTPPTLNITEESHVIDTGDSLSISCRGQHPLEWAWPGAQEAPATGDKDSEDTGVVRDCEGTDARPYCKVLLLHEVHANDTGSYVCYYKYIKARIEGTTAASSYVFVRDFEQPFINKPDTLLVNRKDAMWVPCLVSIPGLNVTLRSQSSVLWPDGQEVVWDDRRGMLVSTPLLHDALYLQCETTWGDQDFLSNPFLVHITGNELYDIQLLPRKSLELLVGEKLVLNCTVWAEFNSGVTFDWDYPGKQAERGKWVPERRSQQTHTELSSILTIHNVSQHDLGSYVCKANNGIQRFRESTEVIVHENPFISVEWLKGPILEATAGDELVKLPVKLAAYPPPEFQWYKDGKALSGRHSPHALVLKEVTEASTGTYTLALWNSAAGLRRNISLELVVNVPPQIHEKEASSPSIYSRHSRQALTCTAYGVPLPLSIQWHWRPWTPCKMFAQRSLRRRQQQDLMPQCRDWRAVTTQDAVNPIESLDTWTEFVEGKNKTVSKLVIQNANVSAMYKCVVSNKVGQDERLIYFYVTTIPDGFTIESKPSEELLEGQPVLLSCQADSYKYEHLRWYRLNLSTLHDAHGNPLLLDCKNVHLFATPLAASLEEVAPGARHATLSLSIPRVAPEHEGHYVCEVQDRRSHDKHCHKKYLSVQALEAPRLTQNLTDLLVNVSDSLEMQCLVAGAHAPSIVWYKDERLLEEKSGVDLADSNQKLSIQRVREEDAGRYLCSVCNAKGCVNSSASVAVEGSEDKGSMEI

[1] = ACHN cells, pLKO.1 lentiviral transduction
[2] = 786-O cells, pLKO.1 lentiviral transduction

Question: “5′-GCCTTTGTITTCCATTTCC-3′ (GCCTTTGTTTTCCATTTCC; chemistry not given here) [shRNA NF #1]” was tested. Which “expression of the respective target (VEGF or VEGF222/NF)” value (from here on “expression of the respective target”) (ACHN cells) did it give?
Answer: downregulated the expression of their respective targets

Question: And the “expression of the respective target” value (786-O cells)?
Answer: downregulated the expression of their respective targets

Question: “5′-AGGGCAGAATCATCACGAAGT-3′ (expressed or natural sequence) [shRNA #2]” was tested. Which “expression of the respective target” value (ACHN cells; [1]) did it give?
Answer: downregulated the expression of their respective targets

Question: What about the “expression of the respective target” value (786-O cells; [2]) of the same molecule?
Answer: downregulated the expression of their respective targets

Question: For “5′-CATITCCCTCAGATGTGACAA-3′ (CATTTCCCTCAGATGTGACAA; chemistry not given here) [shRNA NF #2]”, which “expression of the respective target” value (ACHN cells) is on record?
Answer: downregulated the expression of their respective targets

Question: What about the “expression of the respective target” value (786-O cells) of the same molecule?
Answer: downregulated the expression of their respective targets

Question: What does the source list for `CCN(CC)CCNC(=O)c1c(C)[nH]c(/C=C2\C(=O)Nc3ccc(F)cc32)c1C` [sunitinib]?
Answer: Death % (metastatic ccRCC; High VEGF222/NF): 83%; OS (months) (metastatic ccRCC; High VEGF222/NF): 13 months; PFS (months) (metastatic ccRCC; High VEGF222/NF): 5 months; progression % (metastatic ccRCC; High VEGF222/NF): 83%; Death % (metastatic ccRCC; Low VEGF222/NF): 68%; OS (months) (metastatic ccRCC; Low VEGF222/NF): 37 months; PFS (months) (metastatic ccRCC; Low VEGF222/NF): 15 months; progression % (metastatic ccRCC; Low VEGF222/NF): 76%; Death % (metastatic ccRCC; Total): 75%; OS (months) (metastatic ccRCC; Total): 33 months; progression % (metastatic ccRCC; Total): 82%; PFS (months) (metastatic ccRCC; Total, 47 M1 ccRCC patients): 12 months

Question: What does the source list for “5′-GCGCAAGAAATCCCGGTATAA-3′ (expressed or natural sequence) [shRNA #1]”?
Answer: expression of the respective target (VEGF or VEGF222/NF) (ACHN cells; [1]): downregulated the expression of their respective targets; expression of the respective target (VEGF or VEGF222/NF) (786-O cells; [2]): downregulated the expression of their respective targets

B1: recombinant VEGF222/NF protein produced in HEK293 cells by ProteoGenix (ligand)
chain: GSHHHHHHSGLEVLFQGPAPMAEGGGQNHHEVVKFMDVYQRSYCHPIETLVDIFQEYPDEIEYIFKPSCVPLMRCGGCCNDEGLECVPTEESNITMQIMRIKPHQGQHIGEMSFLQHNKCECRPKKDRARQENPCGPCSERRKHLFVQDPQTCKCSCKNTDSRCKARQLELNERTCSLCFPFPSDVTSRGGEPGRRKEPPSGFREPDLSPGKTDTERSIQKPRCRHHTITIDRTVLNPET
notes: also called VEGF222 New Form; rVEGF222/NF
Question: With B1 as the molecule, how does the Kd (VEGFR2) read?
Answer: 0.73 nM

Question: What about the Kd (VEGFR1) of the same molecule?
Answer: 1.12 nM

Question: What about the Kd (VEGFR3) of the same molecule?
Answer: 10.4 nM
